Article PMC6684654 (Nature Communications, 2019)
Values after ≈ are worked out from the molar mass of the structure shown. Values joined by “and” are separate entries in the source; they are usually repeats but may differ in a detail not shown here. Equal entries are not always repeated. Bridge positions count the residues as written; N and C are the ends. Ends that are not written are not given here.

Tests used:
[1] = test system: NDM-1 E. coli XJ141047; assay: Kirby Bauer disc diffusion; type: cell-based; details: for inhibition zone diameter: Escherichia coli, read-out: KB disc diffusion
Excerpt: (§1) Supplementary Table 1. Identification and antibiotic susceptibility of NDM-1-producing E. coli strains. […]
(§2) Cefoperazone/ sul bact am KB — — 7 (R) 7 (R) 7 (R)
(§3) Nitrofurantoi n KB — — 14 (R) 17 (R) 19 (S) […]
(§4) R, resistant; S, sensitive; M IC , minimum inhibitory concentration; KB, Kirb y Bauer disc diffusion method.
(§5) The unit of M IC is “ μ g/ mL”. The unit of KB is “ mm” .

[2] = test system: NDM-1 E. coli XJ141015; assay: Kirby Bauer disc diffusion; type: cell-based
Excerpt: as §1, §2, §3, §4, §5

[3] = test system: NDM-1 E. coli XJ141026; assay: Kirby Bauer disc diffusion; type: cell-based
Excerpt: as §1, §2, §3, §4, §5

[4] = test system: NDM-1 K. pneumoniae XJ155020; assay: Kirby Bauer disc diffusion; type: cell-based; details: for disc diffusion inhibition zone diameter: Klebsiella pneumoniae, read-out: KB disc diffusion
Excerpt: (§6) Supplementary Ta b l e 2. Identification and anti biotic susceptibility of NDM-1-producing K. pneumonia strains.
(§7) Antibiotics NDM-1 NDM-1 NDM-1 NDM-1 […]
(§8) Cefoperazone/ sul bact am KB 32 (S) 7 (R) 7 (R) 7 (R) 7 (R)
(§9) Nitrofurantoi n KB 21 (S) 7 (R) 9 (R) 10 (R) 9 (R) […]
(§10) R, resistant; S, sensitive; M IC , minimum inhibitory concentration; KB, Kirb y Baue r disc diffusion method .
(§11) The unit of M IC is “μg/mL”. The unit of KB is “mm”.

[5] = test system: NDM-1 K. pneumoniae XJ155019; assay: Kirby Bauer disc diffusion; type: cell-based
Excerpt: as §6, §7, §8, §9, §10, §11

[6] = test system: NDM-1 K. pneumoniae XJ155018; assay: Kirby Bauer disc diffusion; type: cell-based; details: for inhibition zone diameter: Klebsiella pneumoniae, read-out: KB disc diffusion
Excerpt: as §6, §7, §8, §9, §10, §11

[7] = test system: NDM-1 K. pneumoniae XJ155017; assay: Kirby Bauer disc diffusion; type: cell-based; details: for inhibition zone diameter (Kirby-Bauer disc diffusion): Klebsiella pneumoniae, read-out: KB disc diffusion
Excerpt: as §6, §7, §8, §9, §10, §11

[8] = test system: K. pneumoniae ATCC13883; assay: Kirby Bauer disc diffusion; type: cell-based; details: for inhibition zone diameter: Klebsiella pneumoniae, ATCC13883, read-out: KB disc diffusion
Excerpt: as §6, §7, §8, §9, §10, §11

[9] = test system: NDM-1 E. coli XJ141026; assay: Checkerboard assay / FIC; type: cell-based; details: Escherichia coli
Description: (§12) Synergy in vitro was assessed by checkerboard assays. […] Following incubation, the synergistic/additive effect was determined by calculating the FIC indices (FICI) according to the formula: FICI = (MIC of A in combination/MIC of A) + (MIC of B in combination/MIC of B). The synergy or additive was defined according to standard criteria (FICI ≤ 0.5 was defined as synergistic; 0.5 < FICI ≤ 1 was defined as additive; 1 < FICI ≤ 4 was defined as indifference; FICI > 4 was defined as antagonism)[39].

[10] = test system: seven NDM-1-producing strains; assay: Checkerboard assay / FIC, summary; type: cell-based, E. coli; K. pneumoniae; details: in combination with thanatin
Description: as §12

[11] = test system: NDM-1-producing E. coli XJ141026; assay: Bactericidal activity of combination treatment; type: cell-based; details: Mem 18 μM, Tha 0.4 μM, alone or combined, 16 h, listed as Mem
Description: The kill curves were determined as mentioned above to investigate the bactericidal activity of the combination treatment. […] CFUs were counted.

[12] = test system: E. coli ATCC25922; assay: MIC, broth microdilution; type: cell-based; details: Escherichia coli, ATCC25922, 16 h
Excerpt: (§13) MIC values were identified through microdilution in sterilized 96-well polypropylene microtiter plates according to the broth microdilution guideline of the Clinical and Laboratory Standards Institute[30]. The test medium was Mueller–Hinton broth (MHB), and the strain concentrations were adjusted to 5 × 10^5 CFU/mL.

[13] = test system: NDM-1 K. pneumoniae XJ155020; assay: MIC, broth microdilution; type: cell-based; details: Klebsiella pneumoniae, 16 h
Excerpt: as §13

[14] = test system: NDM-1 K. pneumoniae XJ155019; assay: MIC, broth microdilution; type: cell-based; details: Klebsiella pneumoniae, 16 h
Excerpt: as §13

[15] = test system: NDM-1 E. coli XJ141047; assay: MIC, broth microdilution; type: cell-based; details: Escherichia coli; MHB, 5 × 10^5 CFU/mL, 16 h, 37 °C; read-out: MIC
Excerpt: as §13

[16] = test system: NDM-1 K. pneumoniae XJ155018; assay: MIC, broth microdilution; type: cell-based; details: Klebsiella pneumoniae, 16 h
Excerpt: as §13

[17] = test system: NDM-1 E. coli XJ141015; assay: MIC, broth microdilution; type: cell-based; details: Escherichia coli; MHB, 5 × 10^5 CFU/mL, 16 h, 37 °C; read-out: MIC
Excerpt: as §13

[18] = test system: NDM-1 K. pneumoniae XJ155017; assay: MIC, broth microdilution; type: cell-based; details: Klebsiella pneumoniae, 16 h
Excerpt: as §13

[19] = test system: NDM-1 E. coli XJ141026; assay: MIC, broth microdilution; type: cell-based; details: Escherichia coli; MHB, 5 × 10^5 CFU/mL, 16 h, 37 °C; read-out: MIC
Excerpt: as §13

[20] = test system: E. coli ATCC35218; assay: MIC, broth microdilution; type: cell-based; details: Escherichia coli, ATCC35218, 16 h
Excerpt: as §13

[21] = test system: K. pneumoniae ATCC13883; assay: MIC, broth microdilution; type: cell-based; details: Klebsiella pneumoniae, ATCC13883, 16 h
Excerpt: as §13

[22] = test system: E. coli ATCC25922; assay: Antibiotic susceptibility (MIC), automated identification system; type: cell-based; details: Supplementary Table 1
Excerpt: (§14) Clinical isolate strains were identified and screened by the Phoenix 100 automated bacterial identification system to rapidly detect antimicrobial resistance. Total DNA was extracted by the TIANamp Bacteria DNA Kit according to the manufacturer’s protocol. The presence of blaNDM-1 was confirmed using a diagnostic kit for NDM-1 (Puruikang Bio Inc., Shenzhen, China) based on fluorescent quantitative polymerase chain reaction assay. According to the instruction, Ct values of less than 37 were considered positive.

[23] = test system: NDM-1 K. pneumoniae XJ155020; assay: as above; type: cell-based; details: Supplementary Table 2
Excerpt: as §14

[24] = test system: NDM-1 K. pneumoniae XJ155019; assay: as above; type: cell-based; details: Supplementary Table 2
Excerpt: as §14

[25] = test system: NDM-1 E. coli XJ141047; assay: as above; type: cell-based; details: Supplementary Table 1
Excerpt: as §14

[26] = test system: NDM-1 K. pneumoniae XJ155018; assay: as above; type: cell-based; details: Supplementary Table 2
Excerpt: as §14

[27] = test system: NDM-1 E. coli XJ141015; assay: as above; type: cell-based; details: Supplementary Table 1
Excerpt: as §14

[28] = test system: NDM-1 K. pneumoniae XJ155017; assay: as above; type: cell-based; details: Supplementary Table 2
Excerpt: as §14

[29] = test system: NDM-1 E. coli XJ141026; assay: as above; type: cell-based; details: Supplementary Table 1
Excerpt: as §14

[30] = test system: K. pneumoniae ATCC13883; assay: as above; type: cell-based; details: Supplementary Table 2
Excerpt: as §14

[31] = test system: E. coli XJ141026-infected BALB/c mice; assay: Thanatin + meropenem in sepsis model: survival; type: in vivo, mouse (E. coli infection); details: alone or combined, single i.p. dose, n = 14
Description: BALB/c mice were infected intraperitoneally with 8 × 10^7 CFU of E. coli XJ141026 in 0.1 mL of MHB. […] The model group was intraperitoneally injected with an equivalent volume of PBS. […] In addition, the survival rates were detected as described above.

[32] = target: T1, New Delhi metallo-β-lactamase-1 (NDM-1), without signal peptide, amino-terminal histidine tag (RED-tris-NTA second-generation dye on the His-tag (in the MST assay)); assay: enzyme inhibition kinetics; 1 nM purified NDM-1 with 10 μM ZnSO4, pre-incubated 20 min at 30 °C with thanatin; imipenem 100-1600 μM; initial rates fitted to the competitive inhibition model; 50 mM HEPES, 0.05% Tween-20; details: both partners purified
T1 construct: NDM-1 with the signal peptide deleted; also called apo-NDM-1; purified NDM-1; source: E. coli BL21 (DE3), pET30a, purified (Ni-IDA); apo form by dialysis against EDTA; not shown: His6, N-terminal, kept
T1 chain: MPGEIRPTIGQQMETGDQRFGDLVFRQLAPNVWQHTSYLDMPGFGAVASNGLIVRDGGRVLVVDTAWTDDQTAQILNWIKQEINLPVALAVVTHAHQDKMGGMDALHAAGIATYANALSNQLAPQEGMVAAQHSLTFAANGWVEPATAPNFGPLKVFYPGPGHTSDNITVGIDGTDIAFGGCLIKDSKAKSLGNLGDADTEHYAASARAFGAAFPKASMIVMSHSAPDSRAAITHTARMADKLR

[33] = target: T1, New Delhi metallo-β-lactamase-1 …; assay: cell-based or functional assay
[34] = target: T1, New Delhi metallo-β-lactamase-1 …; assay: MST; RED-tris-NTA-labelled apo-NDM-1 (100 nM, mixed 1:1) with serially diluted thanatin; 50 mM HEPES pH 6.8, 0.05% Tween-20; 30 min at room temperature; Monolith NT.115 Pico, medium MST power; details: both partners purified

O=C1CN(/N=C/c2ccc([N+](=O)[O-])o2)C(=O)N1 [Nitrofurantoin]
susceptibility class (KB) [1]: S
inhibition zone diameter [1]: 19 mM
susceptibility class (KB) [2]: R
susceptibility class (KB) [3]: R
Kb ([3]; Escherichia coli, read-out: KB disc diffusion): 17000 µM
susceptibility class (KB) [4]: R
disc diffusion inhibition zone diameter [4]: 9 mM
susceptibility class (KB) [5]: R
Kb ([5]; Klebsiella pneumoniae, read-out: KB disc diffusion): 10000 µM
susceptibility class (KB) [6]: R
inhibition zone diameter [6]: 9 mM
susceptibility class (KB) [7]: R
inhibition zone diameter (Kirby-Bauer disc diffusion) [7]: 7 mM
susceptibility class (KB) [8]: S
inhibition zone diameter [8]: 21 mM

CO/N=C(\C(=O)N[C@@H]1C(=O)N2C(C(=O)O)=C(COC(N)=O)CS[C@H]12)c1ccco1 [Cefuroxime]
susceptibility class (KB) [1]: R
inhibition zone diameter [1]: 7 mM
susceptibility class (KB) [2]: R
susceptibility class (KB) [3]: R
susceptibility class (KB) [4]: R
disc diffusion inhibition zone diameter [4]: 7 mM
susceptibility class (KB) [5]: R
susceptibility class (KB) [6]: R
inhibition zone diameter [6]: 7 mM
susceptibility class (KB) [7]: R
inhibition zone diameter (Kirby-Bauer disc diffusion) [7]: 7 mM
susceptibility class (KB) [8]: S
inhibition zone diameter [8]: 23 mM

C[C@@H](O)[C@H]1C(=O)N2C(C(=O)O)=C(S[C@@H]3CN[C@H](C(=O)N(C)C)C3)[C@H](C)[C@H]12 [Meropenem]
MIC ([9]; in the presence of sub-MIC thanatin): 18 µM
MIC ([9]; meropenem alone): 144 µM
FIC indices, all seven strains [10]: ≤ 1
effect of combination [10]: synergistic or additive
bacterial count ([11]; replicate 1): 11.61 Log10(CFU/mL) and 4.04E+11 CFU/mL
bacterial count ([11]; replicate 2): 12.11 Log10(CFU/mL) and 1.30E+12 CFU/mL
bacterial count ([11]; replicate 3): 11.93 Log10(CFU/mL) and 8.52E+11 CFU/mL
bacterial count ([11]; replicate 4): 10.88 Log10(CFU/mL) and 7.65E+10 CFU/mL
MIC [12]: < 0.125 µg/mL
MIC [13]: 128 µg/mL (≈ 334 µM)
MIC [14]: 128 µg/mL (≈ 334 µM)
MIC [15]: 64 µg/mL (≈ 167 µM)
MIC [16]: 128 µg/mL (≈ 334 µM)
MIC [17]: 64 µg/mL (≈ 167 µM)
MIC [18]: > 256 µg/mL
MIC [19]: 64 µg/mL (≈ 167 µM)
MIC [20]: < 0.125 µg/mL
MIC [21]: < 0.125 µg/mL
MIC ([22]; Escherichia coli, ATCC25922): ≤ 1 µg/mL
susceptibility class (MIC) [22]: S
MIC ([23]; Klebsiella pneumoniae): > 8 µg/mL
susceptibility class (MIC) [23]: R
MIC ([24]; Klebsiella pneumoniae): > 8 µg/mL
susceptibility class (MIC) [24]: R
MIC ([25]; Escherichia coli): > 8 µg/mL
susceptibility class (MIC) [25]: R
MIC ([26]; Klebsiella pneumoniae): > 8 µg/mL
susceptibility class (MIC) [26]: R
MIC ([27]; Escherichia coli): > 8 µg/mL
susceptibility class (MIC) [27]: R
MIC ([28]; Klebsiella pneumoniae): > 8 µg/mL
susceptibility class (MIC) [28]: R
MIC ([29]; Escherichia coli): > 8 µg/mL
susceptibility class (MIC) [29]: R
MIC ([30]; Klebsiella pneumoniae, ATCC13883): ≤ 1 µg/mL
susceptibility class (MIC) [30]: S
Survival (number of mice) ([31]; Tha 0.1 mg/kg, Mem 10 mg/kg, Day 7): 4
survival rate ([31]; thanatin 0.1 mg/kg, meropenem 10 mg/kg): 30%

B1: Thanatin (peptide)
peptide: GSKKPVPIIYCNRRTGKCQRM
modifications: disulfide 11-18
notes: thanatin, inducible 21-residue insect peptide; source: synthetic peptide (solid-phase, Fmoc), purified by reverse-phase HPLC to over 98%
Ki [32]: 2.84 µM
inhibition of imipenem hydrolysis by purified NDM-1 (1 nM enzyme, 100 μM imipenem, 12 concentrations of thanatin), IC50 [33]: 3.21 µM
Kd [34]: ~0.71 µM
